Patent US9102638B2, “Amidobenzothiazoles and process for the preparation thereof” (COUNCIL OF SCIENTIFIC & INDUSTRIAL RESEARCH, priority 2011, dated 2015)

Assays:
Type in all cases: cell-based
[1] = test system: prostate cancer cell lines; experiment: In vitro activity against prostate cancer cell lines (panel range); conditions: Homo sapiens, read-out: GI50 values, range over the listed compounds and the panel
Experimental: (§1) The in vitro anticancer activity studies for these amidobenzothiazoles were carried out at the National Cancer Institute, Maryland, USA.
(§2) The amidobenzothiazoles have been tested against sixty human tumor cell lines derived from nine cancer types (leukemia cancer cell line, non-small cell lung cancer cell line, colon cancer cell line, CNS cancer cell line, melanoma cancer cell line, ovarian cancer cell line, renal cancer cell line, prostate cancer cell line and breast cancer cell lines). For these compounds results are expressed in GI50 values of that particular cancer cell at micro molar (μM) concentration as per NCI protocol.

MOLT-4 = experiment: In vitro cytotoxicity, NCI screen: MOLT-4 (Leukemia); conditions: Homo sapiens; MOLT-4, Leukemia panel, NCI protocol; read-out: GI50 values (μM conc.)
Experimental: as §1, §2

CCRF-CEM = experiment: In vitro cytotoxicity, NCI sixty cell line screen: CCRF-CEM (Leukemia); conditions: Homo sapiens, Leukemia panel, NCI protocol, read-out: GI50 values (μM conc.)
Experimental: as §1, §2

[2] = test system: leukemia cancer cell lines; experiment: In vitro activity against leukemia cancer cell lines (panel range); conditions: Homo sapiens, read-out: GI50 values, range over the listed compounds and the panel
Experimental: as §1, §2

A549/ATCC = experiment: In vitro cytotoxicity, NCI screen: A549/ATCC (Non-small cell lung); conditions: Homo sapiens, Non-small cell lung panel, NCI protocol, read-out: GI50 values (μM conc.)
Experimental: as §1, §2

SNB-19 = experiment: In vitro cytotoxicity, NCI screen: SNB-19 (CNS); conditions: Homo sapiens; SNB-19, CNS panel, NCI protocol; read-out: GI50 values (μM conc.)
Experimental: as §1, §2

SR = experiment: In vitro cytotoxicity, NCI screen: SR (Leukemia); conditions: Homo sapiens, Leukemia panel, NCI protocol, read-out: GI50 values (μM conc.)
Experimental: as §1, §2

MCF7 = experiment: In vitro cytotoxicity, NCI screen: MCF7 (Breast); conditions: Homo sapiens; MCF7, Breast panel, NCI protocol; read-out: GI50 values (μM conc.)
Experimental: as §1, §2

HOP-62 = experiment: In vitro cytotoxicity, NCI screen: HOP-62 (Non-small cell lung); conditions: Homo sapiens; HOP-62, Non-small cell lung panel, NCI protocol; read-out: GI50 values (μM conc.)
Experimental: as §1, §2

NCI-H522 = experiment: In vitro cytotoxicity, NCI screen: NCI-H522 (Non-small cell lung); conditions: Homo sapiens; NCI-H522, Non-small cell lung panel, NCI protocol; read-out: GI50 values (μM conc.)
Experimental: as §1, §2

A498 = experiment: In vitro cytotoxicity, NCI screen: A498 (Renal); conditions: Homo sapiens; A498, Renal panel, NCI protocol; read-out: GI50 values (μM conc.)
Experimental: as §1, §2

HCT-116 = experiment: In vitro cytotoxicity, NCI screen: HCT-116 (Colon); conditions: Homo sapiens, read-out: GI50 values (μM conc.)
Experimental: as §1, §2

SF-295 = experiment: In vitro cytotoxicity, NCI screen: SF-295 (CNS); conditions: Homo sapiens; SF-295, CNS panel, NCI protocol; read-out: GI50 values (μM conc.)
Experimental: as §1, §2

IGROV1 = experiment: In vitro cytotoxicity, NCI screen: IGROV1 (Ovarian); conditions: Homo sapiens, IGROV-1; IGROV1, Ovarian panel, NCI protocol; read-out: GI50 values (μM conc.)
Experimental: as §1, §2

ACHN = experiment: In vitro cytotoxicity, NCI screen: ACHN (Renal); conditions: Homo sapiens, Renal panel, NCI protocol, read-out: GI50 values (μM conc.)
Experimental: as §1, §2

LOX IMVI = experiment: In vitro cytotoxicity, NCI screen: LOX IMVI (Melanoma); conditions: Homo sapiens, Melanoma panel, NCI protocol, read-out: GI50 values (μM conc.)
Experimental: as §1, §2

MDA-MB-435 = experiment: In vitro cytotoxicity, NCI screen: MDA-MB-435 (Melanoma); conditions: Homo sapiens; MDA-MB-435, Melanoma panel, NCI protocol; read-out: GI50 values (μM conc.)
Experimental: as §1, §2

MDA-MB-468 = experiment: In vitro cytotoxicity, NCI screen: MDA-MB-468 (Breast); conditions: Homo sapiens, read-out: GI50 values (μM conc.)
Experimental: as §1, §2

HS 578T = experiment: In vitro cytotoxicity, NCI screen: HS 578T (Breast); conditions: Homo sapiens, read-out: GI50 values (μM conc.)
Experimental: as §1, §2

OVCAR-4 = experiment: In vitro cytotoxicity, NCI screen: OVCAR-4 (Ovarian); conditions: Homo sapiens; OVCAR-4, Ovarian panel, NCI protocol; read-out: GI50 values (μM conc.)
Experimental: as §1, §2

MALME-3M = experiment: In vitro cytotoxicity, NCI screen: MALME-3M (Melanoma); conditions: Homo sapiens, Melanoma panel, NCI protocol, read-out: GI50 values (μM conc.)
Experimental: as §1, §2

NCI-H23 = experiment: In vitro cytotoxicity, NCI screen: NCI-H23 (Non-small cell lung); conditions: Homo sapiens; NCI-H23, Non-small cell lung panel, NCI protocol; read-out: GI50 values (μM conc.)
Experimental: as §1, §2

DU-145 = experiment: In vitro cytotoxicity, NCI screen: DU-145 (Prostate); conditions: Homo sapiens, read-out: GI50 values (μM conc.)
Experimental: as §1, §2

SN12C = experiment: In vitro cytotoxicity, NCI screen: SN12C (Renal); conditions: Homo sapiens, Renal panel, NCI protocol, read-out: GI50 values (μM conc.)
Experimental: as §1, §2

OVCAR-8 = experiment: In vitro cytotoxicity, NCI screen: OVCAR-8 (Ovarian); conditions: Homo sapiens; OVCAR-8, Ovarian panel, NCI protocol; read-out: GI50 values (μM conc.)
Experimental: as §1, §2

SK-MEL-2 = experiment: In vitro cytotoxicity, NCI screen: SK-MEL-2 (Melanoma); conditions: Homo sapiens; SK-MEL-2, Melanoma panel, NCI protocol; read-out: GI50 values (μM conc.)
Experimental: as §1, §2

BT-549 = experiment: In vitro cytotoxicity, NCI screen: BT-549 (Breast); conditions: Homo sapiens, read-out: GI50 values (μM conc.)
Experimental: as §1, §2

MDA-MB-231/ATCC = experiment: In vitro cytotoxicity, NCI screen: MDA-MB-231/ATCC (Breast); conditions: Homo sapiens, Breast panel, NCI protocol, read-out: GI50 values (μM conc.)
Experimental: as §1, §2

NCI-H460 = experiment: In vitro cytotoxicity, NCI screen: NCI-H460 (Non-small cell lung); conditions: Homo sapiens; NCI-H460, Non-small cell lung panel, NCI protocol; read-out: GI50 values (μM conc.)
Experimental: as §1, §2

UACC-62 = experiment: In vitro cytotoxicity, NCI screen: UACC-62 (Melanoma); conditions: Homo sapiens; UACC-62, Melanoma panel, NCI protocol; read-out: GI50 values (μM conc.)
Experimental: as §1, §2

HCT-15 = experiment: In vitro cytotoxicity, NCI screen: HCT-15 (Colon); conditions: Homo sapiens; HCT-15, Colon panel, NCI protocol; read-out: GI50 values (μM conc.)
Experimental: as §1, §2

M14 = experiment: In vitro cytotoxicity, NCI screen: M14 (Melanoma); conditions: Homo sapiens; M14, Melanoma panel, NCI protocol; read-out: GI50 values (μM conc.)
Experimental: as §1, §2

KM12 = experiment: In vitro cytotoxicity, NCI screen: KM12 (Colon); conditions: Homo sapiens; KM12, Colon panel, NCI protocol; read-out: GI50 values (μM conc.)
Experimental: as §1, §2

HCC-2998 = experiment: In vitro cytotoxicity, NCI screen: HCC-2998 (Colon); conditions: Homo sapiens; HCC-2998, Colon panel, NCI protocol; read-out: GI50 values (μM conc.)
Experimental: as §1, §2

Row | SMILES | GI50 [1] [µM] | GI50 (MOLT-4) [µM] | GI50 (CCRF-CEM) [µM] | GI50 [2] [µM] | GI50 (A549/ATCC) [µM] | GI50 (SR) [µM] | GI50 (MCF7) [µM] | GI50 (NCI-H522) [µM] | GI50 (A498) [µM] | GI50 (HCT-116) [µM] | GI50 (SF-295) [µM] | GI50 (IGROV1) [µM] | GI50 (ACHN) [µM] | GI50 (LOX IMVI) [µM] | GI50 (MDA-MB-435) [µM] | GI50 (MDA-MB-468) [µM] | GI50 (OVCAR-4) [µM] | GI50 (MALME-3M) [µM] | GI50 (NCI-H23) [µM] | GI50 (DU-145) [µM] | further results
1 | COc1ccc(/C=C\c2cc(OC)c(OC)c(OC)c2)cc1OCC(=O)Nc1nc2ccc(C(F)(F)F)cc2s1 [Compound 8i, N1-(6-(trifluoromethyl)-1,3-benzothiazol-2-yl)-2-{2-methoxy-5-[(Z)-2-(3,4,5-trimethoxyphenyl)-1-ethenyl]phenoxy}acetamide] | 0.18 to 22.9 | 3.75 | 4.27 | 0.037 to 29.9 | 4.46 | 3.35 | 3.16 | 2.89 | 2.81 | 3.29 | 3.36 | 4.48 | 4.82 | 4.01 | 1.84 | 2.16 | 4.66 | > 100 | 3.9 | 2.51 | GI50 (SNB-19): 5.03 µM; GI50 (HOP-62): 5.22 µM; GI50 (HS 578T): 4.18 µM; GI50 (SN12C): 4.43 µM; GI50 (OVCAR-8): 3.86 µM; GI50 (SK-MEL-2): 3.98 µM; GI50 (BT-549): 5.23 µM; GI50 (MDA-MB-231/ATCC): 3.38 µM; GI50 (NCI-H460): 3.55 µM; GI50 (UACC-62): 3.9 µM; GI50 (HCT-15): 3.24 µM; GI50 (M14): 3.58 µM; GI50 (KM12): 3.14 µM; GI50 (HCC-2998): 4.23 µM
2 | COc1ccc(/C=C\c2cc(OC)c(OC)c(OC)c2)cc1OCC(=O)Nc1nc2ccccc2s1 [Compound 8a, N1-(1,3-benzothiazol-2-yl)-2-{2-methoxy-5-[(Z)-2-(3,4,5-trimethoxyphenyl)-1-ethenyl]phenoxy}acetamide] | 0.18 to 22.9 | 0.34 | 0.078 | 0.037 to 29.9 | 0.34 | 0.037 | 0.051 | 0.079 | 0.36 | 0.046 | 0.22 | 0.21 | 0.093 | 0.067 | 0.019 | 0.1 | 0.37 | 1.99 | 0.11 | 0.1 | GI50 (SN12C): 0.37 µM; GI50 (OVCAR-8): 0.25 µM; GI50 (SK-MEL-2): 0.18 µM; GI50 (BT-549): 0.41 µM; GI50 (MDA-MB-231/ATCC): 0.19 µM; GI50 (NCI-H460): 0.052 µM; GI50 (UACC-62): 0.063 µM; GI50 (HCT-15): 0.048 µM; GI50 (M14): 0.072 µM; GI50 (KM12): 0.058 µM; GI50 (HCC-2998): 0.37 µM
